Here are results for four molecules from ChEMBL document CHEMBL1154389, “Discovery of pyrimidine benzimidazoles as Src-family selective Lck inhibitors. Part II” (Bioorg Med Chem Lett, 2009).

Bounds are passed on as bounds.

Data set [1] addresses Tyrosine-protein kinase Lck (Homo sapiens, UniProt P06239). Kind of data set: Inhibition of LCK.
For data set [2], the target named is Tyrosine-protein kinase HCK (Homo sapiens, UniProt P08631). Kind of data set: Inhibition of HCK.
The subject of another data set is Mus musculus. Kind of data set: (§1) AUC in mouse at 20 mg/kg, po. Also on record: dose 20 mg/kg, route oral. In kind it is ADME, organism-based, Plasma.
Data set [3] deals with Proto-oncogene tyrosine-protein kinase Src (Homo sapiens, UniProt P12931). Briefly: Inhibition of SRC.
Data set [4] can be described thus: Metabolic stability in mouse assessed as extraction ratio at 20 mg/kg, po. In kind it is ADME, organism-based. Also on record: dose 20 mg/kg, route oral. The following applies: in vivo.
The nature of data set [5]: as §1. Type of data set: ADME, organism-based, Plasma. Also on record: dose 20 mg/kg, route oral. The following applies: mouse, plasma, po, 20 mg/kg.
For the next data set, the system named is BaF3. Briefly: Cytotoxicity against mouse BAF3 cells. In kind it is functional, cell-based.

Tyrosine-protein kinase Lck, sequence (P06239 whole entry): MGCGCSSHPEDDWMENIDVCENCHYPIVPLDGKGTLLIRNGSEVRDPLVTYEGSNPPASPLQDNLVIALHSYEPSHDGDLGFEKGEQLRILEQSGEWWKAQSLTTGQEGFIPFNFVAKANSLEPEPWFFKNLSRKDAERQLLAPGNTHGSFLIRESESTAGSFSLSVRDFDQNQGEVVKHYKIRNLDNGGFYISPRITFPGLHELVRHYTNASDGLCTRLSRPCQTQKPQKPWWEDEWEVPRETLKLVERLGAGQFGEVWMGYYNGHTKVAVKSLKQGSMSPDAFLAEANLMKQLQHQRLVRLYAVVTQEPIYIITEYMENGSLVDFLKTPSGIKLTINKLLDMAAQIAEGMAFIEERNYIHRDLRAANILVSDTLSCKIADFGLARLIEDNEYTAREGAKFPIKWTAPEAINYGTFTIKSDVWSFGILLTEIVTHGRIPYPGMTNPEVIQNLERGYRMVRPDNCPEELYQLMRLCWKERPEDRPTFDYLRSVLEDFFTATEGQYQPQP
Tyrosine-protein kinase HCK, sequence (P08631 whole entry): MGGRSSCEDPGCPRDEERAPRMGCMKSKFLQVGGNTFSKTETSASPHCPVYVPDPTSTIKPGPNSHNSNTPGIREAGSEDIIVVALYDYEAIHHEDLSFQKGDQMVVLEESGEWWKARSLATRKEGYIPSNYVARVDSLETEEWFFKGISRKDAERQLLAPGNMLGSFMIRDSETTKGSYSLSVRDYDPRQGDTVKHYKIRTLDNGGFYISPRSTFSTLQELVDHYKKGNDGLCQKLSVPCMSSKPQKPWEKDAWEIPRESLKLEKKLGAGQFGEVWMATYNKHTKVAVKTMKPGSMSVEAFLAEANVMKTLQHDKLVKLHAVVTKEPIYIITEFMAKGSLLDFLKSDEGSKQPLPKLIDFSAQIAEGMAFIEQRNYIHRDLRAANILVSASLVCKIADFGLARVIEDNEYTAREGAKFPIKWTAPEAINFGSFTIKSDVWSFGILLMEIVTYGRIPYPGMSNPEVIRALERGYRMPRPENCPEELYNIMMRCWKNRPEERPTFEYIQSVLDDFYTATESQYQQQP
Proto-oncogene tyrosine-protein kinase Src, sequence (P12931 2-536 limits assumed): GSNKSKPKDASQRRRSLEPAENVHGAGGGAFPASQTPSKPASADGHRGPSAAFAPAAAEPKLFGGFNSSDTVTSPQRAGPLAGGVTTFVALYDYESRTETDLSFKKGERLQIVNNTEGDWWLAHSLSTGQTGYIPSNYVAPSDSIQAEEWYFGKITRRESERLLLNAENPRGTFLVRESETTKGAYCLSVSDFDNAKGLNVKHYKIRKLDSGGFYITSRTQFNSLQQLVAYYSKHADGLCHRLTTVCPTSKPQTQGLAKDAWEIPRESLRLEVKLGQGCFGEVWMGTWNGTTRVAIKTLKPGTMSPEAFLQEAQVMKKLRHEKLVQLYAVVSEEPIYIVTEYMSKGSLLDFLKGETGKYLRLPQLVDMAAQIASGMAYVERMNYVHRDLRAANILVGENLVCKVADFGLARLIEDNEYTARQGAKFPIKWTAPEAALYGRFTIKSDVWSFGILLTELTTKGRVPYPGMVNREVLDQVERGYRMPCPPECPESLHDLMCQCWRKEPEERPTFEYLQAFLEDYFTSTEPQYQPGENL

For `COCCNc1cc(-n2c(Nc3cc(NC(=O)c4cccc(C(F)(F)F)c4)ccc3C)nc3ccccc32)ncn1`, the IC50 in data set [1] is 135 nM; in data set [2], 405 nM; in data set [3], 1690 nM. The same molecule came in with an AUC with Mus musculus of 2687 nmol·h/L.

Consider `Cc1ccc(NC(=O)c2cccc(C(F)(F)F)c2)cc1Nc1nc2ccccc2n1-c1cc(N[C@H]2CC[C@H](N)CC2)ncn1`, for which the hepatic extraction ratio in data set [4] was 0.383. Moreover, the IC50 in data set [1] turned out to be 71 nM; in data set [2] it was 450 nM; in data set [3] it was 1720 nM.

`CCN(CC)CCCCNc1cc(-n2c(Nc3cc(NC(=O)c4cccc(C(F)(F)F)c4)ccc3C)nc3ccccc32)ncn1`: the hepatic extraction ratio in data set [4] was under 0.3. The IC50 in data set [1] came to 12 nM; in data set [2], 430 nM; in data set [3], 97 nM. This molecule returned an AUC in data set [5] of 0.368 µM·h.

On to `Cc1ccc(NC(=O)c2ccc(C(C)(C)C)s2)cc1Nc1nc2ccccc2n1-c1cc(N)ncn1`, for which the IC50 is 6 nM with BaF3, 43 nM in data set [1], 84 nM in data set [2] and 916 nM in data set [3].

By IC50 is commonly meant the concentration at which inhibition is half-maximal. Lower therefore signals inhibition by little substance.
